Reference: ChEMBL document CHEMBL5303304, “EUbOPEN Chemogenomics Library - IncuCyte” (2023)

Assays:
Format in all cases: toxicity, cell-based
HEK-293T = assay: Incucyte cell viability with HEK293T; settings: human, 10 µM, compound concentration 10 uM
U2OS = assay: Incucyte cell viability with U2OS; settings: human, 10 µM, compound concentration 10 uM
Fibroblast = assay: Incucyte cell viability with human fibroblast; settings: 10 µM, compound concentration 10 uM
Note: unitless GR value; below 1 slowed growth and below 0 cell loss.

SMILES	Growth Rate (HEK-293T; 6 h, replicate number 1)	Growth Rate (HEK-293T; 6 h, replicate number 2)	Growth Rate (HEK-293T; 12 h, replicate number 1)	Growth Rate (HEK-293T; 12 h, replicate number 2)	Growth Rate (HEK-293T; 18 h, replicate number 1)	Growth Rate (HEK-293T; 18 h, replicate number 2)	Growth Rate (HEK-293T; 24 h, replicate number 1)	Growth Rate (HEK-293T; 24 h, replicate number 2)	Growth Rate (U2OS; 0 h, replicate number 1)	Growth Rate (U2OS; 0 h, replicate number 2)	Growth Rate (U2OS; 6 h, replicate number 2)	Growth Rate (U2OS; 12 h, replicate number 1)	Growth Rate (U2OS; 18 h, replicate number 2)	Growth Rate (Fibroblast; 0 h, replicate number 2)	Growth Rate (Fibroblast; 6 h, replicate number 1)	Growth Rate (Fibroblast; 12 h, replicate number 1)	Growth Rate (Fibroblast; 18 h, replicate number 1)	Growth Rate (Fibroblast; 24 h, replicate number 1)	Growth Rate (Fibroblast; 12 h, replicate number 2)	Growth Rate (Fibroblast; 18 h, replicate number 2)	other results
Cc1nc2c([nH]1)c(=O)n(C)c(=O)n2Cc1ccco1 [FURAFYLLINE]	0.19	0.63	0.18	0.76	0.7	0.82	0.87	0.88	-0.64	-0.96	0.59	0.95	1	-0.99	0.42	-1	0.5	0.65			
OCC1OC(n2cnc3cc(Cl)c(Cl)cc32)C(O)C1O (centres undefined)	0.33	0.29	0.43	0.83	0.48	0.74	0.55	0.82		0.83	0.95	0.53	0.94	-0.97				0.84	0.42	0.86	Growth Rate (HEK-293T; 0 h, replicate number 1): 0.64; Growth Rate (HEK-293T; 0 h, replicate number 2): 0.84; Growth Rate (U2OS; 18 h, replicate number 1): 0.33; Growth Rate (Fibroblast; 0 h, replicate number 1): -0.9; Growth Rate (Fibroblast; 6 h, replicate number 2): 0.4; Growth Rate (Fibroblast; 24 h, replicate number 2): 0.78
COc1cc(C(=O)NCCOCCOCCOCC(=O)N[C@H](C(=O)N2C[C@@H](O)C[C@H]2C(=O)NCc2ccc(-c3scnc3C)cc2)C(C)(C)C)ccc1Nc1ncc(C(F)(F)F)c(Oc2cccc3c2C(=O)CC3)n1										0.1				0.86							Growth Rate (HEK-293T; 0 h, replicate number 1): -1; Growth Rate (U2OS; 24 h, replicate number 2): 0.94
CC(C)NC(=O)[C@H]1CCC[C@H]1Nc1nc(Nc2ccc(CN(C)C)cc2)ncc1Br.Cl	-0.59	-0.5	-0.3	-0.36	-0.04	-0.19	0.2	0.01	-0.38	0.74	0.17	-0.31	0.24		-0.53	-0.42	-0.37	-0.38	-0.59	-0.51	Growth Rate (HEK-293T; 0 h, replicate number 2): -1; Growth Rate (U2OS; 6 h, replicate number 1): 0.07; Growth Rate (U2OS; 12 h, replicate number 2): 0.15; Growth Rate (U2OS; 18 h, replicate number 1): 0.3; Growth Rate (U2OS; 24 h, replicate number 1): 0.32; Growth Rate (U2OS; 24 h, replicate number 2): 0.2; Growth Rate (Fibroblast; 6 h, replicate number 2): -0.82; Growth Rate (Fibroblast; 24 h, replicate number 2): -0.46
CN1C(=O)c2c(nn(Cc3ccc(-c4cccc(F)n4)cc3)c2Nc2ccccc2)N2C1=N[C@@H]1CCC[C@@H]12.O=P(O)(O)O [LENRISPODUN PHOSPHATE]				0.71		0.79		0.83	0.51			0.5							0.65	0.94	Growth Rate (HEK-293T; 0 h, replicate number 1): 0.85; Growth Rate (HEK-293T; 0 h, replicate number 2): 0.18; Growth Rate (U2OS; 6 h, replicate number 1): 0.84; Growth Rate (U2OS; 18 h, replicate number 1): 0.67; Growth Rate (U2OS; 24 h, replicate number 1): 0.68; Growth Rate (Fibroblast; 0 h, replicate number 1): -1
CCc1c(-c2ccc3[nH]ncc3c2)cnc(N)c1-c1ccc(O)cc1	0.85	0.91	0.8	0.9		0.91	0.99	0.88		-0.93	0.84			-0.31	0.91						Growth Rate (HEK-293T; 0 h, replicate number 1): -0.12; Growth Rate (U2OS; 24 h, replicate number 1): 0.92
N#CN1CC[C@H](C(=O)Nc2nc3c(s2)CN(C(=O)CN=[N+]=[N-])CC3)C1 [8RK64]		0.66	0.99	0.81		0.93		0.94					0.94	0.48		0.41					Growth Rate (U2OS; 24 h, replicate number 2): 0.89
CCn1ccc(Nc2ncc3c(n2)-c2c(nn(C)c2-c2ccc(-c4cnn(C)c4)cc2Cl)CC3)n1	-0.49	-0.71	-0.39	-0.54	-0.28	-0.43	-0.24	-0.33	-1		0.57		0.13		0.64	0.87	0.32	0.46	0.65	0.5	Growth Rate (U2OS; 12 h, replicate number 2): 0.22; Growth Rate (U2OS; 18 h, replicate number 1): 0.27; Growth Rate (U2OS; 24 h, replicate number 1): 0.21; Growth Rate (U2OS; 24 h, replicate number 2): -0.03; Growth Rate (Fibroblast; 0 h, replicate number 1): -1; Growth Rate (Fibroblast; 24 h, replicate number 2): 0.19
CC(CNS(=O)(=O)C(C)C)c1ccc(-c2ccc(C#N)cc2)cc1 (centres undefined)	-0.35		-0.18	-0.01	0	0.16	0.05	0.22		0.02		0.81	0.73		0.92	-0.89	-0.2	0.14	0.02	0.43	Growth Rate (U2OS; 12 h, replicate number 2): 0.82; Growth Rate (U2OS; 18 h, replicate number 1): 0.83; Growth Rate (U2OS; 24 h, replicate number 1): 0.9; Growth Rate (U2OS; 24 h, replicate number 2): 0.84; Growth Rate (Fibroblast; 0 h, replicate number 1): 0.04; Growth Rate (Fibroblast; 6 h, replicate number 2): -0.76; Growth Rate (Fibroblast; 24 h, replicate number 2): 0.51
CN[C@@H](C)C(=O)N[C@H]1CCCC[C@H]2CC[C@@H](C(=O)N[C@@H](c3ccccc3)c3cn(CCCCc4ccc(CCCCn5cc([C@@H](NC(=O)[C@@H]6CC[C@@H]7CCCC[C@H](NC(=O)[C@H](C)NC)C(=O)N76)c6ccccc6)nn5)cc4)nn3)N2C1=O		0.99	0.83	0.77	0.72	0.74	0.65	0.84	-0.95	-0.89							0.61		0.88	0.55	Growth Rate (HEK-293T; 0 h, replicate number 1): 0.64; Growth Rate (HEK-293T; 0 h, replicate number 2): 0.24; Growth Rate (Fibroblast; 0 h, replicate number 1): 0.3; Growth Rate (Fibroblast; 6 h, replicate number 2): 0.06; Growth Rate (Fibroblast; 24 h, replicate number 2): 0.66
